From patent US12180187B2, “1-phenyl-5-azinylpyrazolyl-3-oxyalkyl acids and their use for controlling unwanted plant growth” (BAYER AKTIENGESELLSCHAFT, priority 2019, dated 2024)

Tests used:
ECHCG = experiment: Pre-emergence action against ECHCG, 1280 g/ha; type: in vivo, Echinochloa crus-galli; settings: visual scoring after about 3 weeks vs untreated controls, 100% = plants have died, 0% = like control plants
Summary of the method: (§1)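 Sandy loam pots, seeds covered with soil; aqueous WP/EC spray on covering soil, 0.5% additive, 600 L/ha. Greenhouse growth, good conditions. Readout: visual % activity at ~3 weeks (0% = like control, 100% = dead).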

VERPE = experiment: Pre-emergence action at 320 g/ha against VERPE; type: in vivo, Veronica persica; settings: visual scoring after about 3 weeks vs untreated controls
Summary of the method: (§2)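 Compounds were sprayed onto soil over sown seeds as emulsions or suspensions with 0.5% additive at a water rate of 600 l/ha. After about 3 weeks in the greenhouse, effect was rated visually as percent (100% = died).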

AMARE [1] = experiment: Pre-emergence action at 320 g/ha against AMARE; type: in vivo, Amaranthus retroflexus; settings: visual scoring after about 3 weeks vs untreated controls
Summary of the method: as §2

AMARE [2] = experiment: Pre-emergence action against AMARE, 1280 g/ha; type: in vivo, Amaranthus retroflexus; settings: scored visually after about 3 weeks vs untreated controls (100% = plants have died)
Summary of the method: as §1

SETVI [3] = experiment: Pre-emergence action at 320 g/ha against SETVI; type: in vivo, Setaria viridis; settings: visual scoring after about 3 weeks vs untreated controls
Summary of the method: as §2

POAAN [4] = experiment: Post-emergence action against POAAN, 1.28 kg/ha; type: in vivo, Poa annua; settings: dosage 1280 g/ha, visual rating about 3 weeks after treatment vs untreated controls
Summary of the method: (§3)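 Greenhouse-grown weeds (sandy loam, twin-sown pots) were treated 2–3 weeks post-sowing at one leaf. The spray was an aqueous WP/EC preparation plus 0.5% additive, applied at 600 L/ha. Scoring was visual at ~3 weeks, 0–100% versus untreated controls.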

MATIN [5] = experiment: Pre-emergence action against MATIN, 1280 g/ha; type: in vivo, Tripleurospermum inodorum (Matricaria inodora); settings: scored visually after about 3 weeks vs untreated controls (100% = plants have died)
Summary of the method: as §1

DIGSA [6] = experiment: Pre-emergence action at 320 g/ha against DIGSA; type: in vivo, Digitaria sanguinalis; settings: visual scoring after about 3 weeks vs untreated controls
Summary of the method: as §2

DIGSA [7] = experiment: Post-emergence action against DIGSA, 1.28 kg/ha; type: in vivo, Digitaria sanguinalis; settings: dosage 1280 g/ha, visual rating about 3 weeks after treatment vs untreated controls
Summary of the method: as §3

POAAN [8] = experiment: Pre-emergence action against POAAN, 1280 g/ha; type: in vivo, Poa annua; settings: visual scoring after about 3 weeks vs untreated controls, 100% = plants have died, 0% = like control plants
Summary of the method: as §1

POLCO = experiment: Pre-emergence action at 320 g/ha against POLCO; type: in vivo, Fallopia convolvulus (Polygonum convolvulus); settings: visual scoring after about 3 weeks vs untreated controls
Summary of the method: as §2

MATIN [9] = experiment: Post-emergence action against MATIN, 1.28 kg/ha; type: in vivo, Tripleurospermum inodorum (Matricaria inodora); settings: dosage 1280 g/ha, visual rating about 3 weeks after treatment vs untreated controls (100% = plants died)
Summary of the method: as §3

SETVI [10] = experiment: Pre-emergence action against SETVI, 1280 g/ha; type: in vivo, Setaria viridis; settings: visual scoring after about 3 weeks vs untreated controls, 100% = plants have died, 0% = like control plants
Summary of the method: as §1

ALOMY = experiment: Pre-emergence action at 320 g/ha against ALOMY; type: in vivo, Alopecurus myosuroides; settings: scored visually after about 3 weeks vs untreated controls (100% = plants have died)
Summary of the method: as §2

MATIN [11] = experiment: Pre-emergence action at 320 g/ha against MATIN; type: in vivo, Tripleurospermum inodorum (Matricaria inodora); settings: visual scoring after about 3 weeks vs untreated controls
Summary of the method: as §2

STEME = experiment: Pre-emergence action against STEME, 1280 g/ha; type: in vivo, Stellaria media; settings: scored visually after about 3 weeks vs untreated controls (100% = plants have died)
Summary of the method: as §1

[12] = Tripleurospermum inodorum, 504 h

SMILES	Pre-emergence action against ECHCG (ECHCG)	Pre-emergence action against VERPE in % (VERPE)	Pre-emergence action against AMARE in % (AMARE [1])	Pre-emergence action against AMARE (AMARE [2])	Pre-emergence action against SETVI in % (SETVI [3])	Post-emergence action against POAAN (POAAN [4])	Pre-emergence action against MATIN (MATIN [5])	Pre-emergence action against DIGSA in % (DIGSA [6])	Post-emergence action against DIGSA (DIGSA [7])	Pre-emergence action against POAAN (POAAN [8])	Pre-emergence action against POLCO in % (POLCO)	Post-emergence action against MATIN (MATIN [9])	Pre-emergence action against SETVI (SETVI [10])	Pre-emergence action at 320 g/ha against ALOMY in % (ALOMY)	Pre-emergence action against MATIN in % (MATIN [11])	Pre-emergence action against STEME (STEME)	also measured
O=C(COc1nn(-c2ccccc2F)c(-c2ccc(F)nc2)c1Br)OCC1OCCO1 [VII-103]	100%	100%	100%	100%	100%	100%	100%	100%	100%	100%	100%	90%	100%	100%	90%	100%	
CCOC(=O)C(C)Oc1nn(-c2ccccc2F)c(-c2ccc(F)nc2)c1C(F)(F)F (stereo not shown) [VII-066]	100%	100%	100%	100%	80%	100%	90%	100%	100%	100%	90%	90%	100%	100%	100%	100%	
CCOC(=O)COc1nn(-c2ccccc2F)c(-c2ccc(F)nc2)c1I [VII-036]	100%	100%	100%	100%	100%	100%	100%	100%	100%	100%	100%	100%	100%	100%	90%	100%	
O=C(O)COc1nn(-c2ccccc2F)c(-c2ccc(F)nc2)c1Br [VII-003, {[4-Bromo-1-(2-fluorophenyl)-5-(6-fluoropyridin-3-yl)-1H-pyrazol-3-yl]oxy}acetic acid]									100%			100%					pest or weed control at 1280 g/ha (ECHCG; Echinochloa crus-galli, 504 h): 100%; pest or weed control at 320 g/ha (VERPE; Veronica persica, 504 h): 100%; pest or weed control at 320 g/ha (AMARE [1]; Amaranthus retroflexus, 504 h): 100%; pest or weed control at 1280 g/ha (AMARE [2]; Amaranthus retroflexus, 504 h): 100%; pest or weed control at 320 g/ha (SETVI [3]; Setaria viridis, 504 h): 100%; pest or weed control at 1280 g/ha (POAAN [4]; Poa annua, 504 h): 100%; pest or weed control at 1280 g/ha (MATIN [5]; [12]): 100%; pest or weed control at 320 g/ha (DIGSA [6]; Digitaria sanguinalis, 504 h): 100%; pest or weed control at 1280 g/ha (POAAN [8]; Poa annua, 504 h): 100%; pest or weed control at 320 g/ha (POLCO; Fallopia convolvulus, 504 h): 90%; pest or weed control at 1280 g/ha (SETVI [10]; Setaria viridis, 504 h): 100%; pest or weed control at 320 g/ha (ALOMY; Alopecurus myosuroides, 504 h): 100%; pest or weed control at 320 g/ha (MATIN [11]; [12]): 90%; pest or weed control at 1280 g/ha (STEME; Stellaria media, 504 h): 100%
COC(=O)COc1nn(-c2ccccc2)c(-c2ccc(F)nc2)c1Br [VII-018]	100%	100%	100%	100%	100%	100%	90%	100%	100%	100%	100%	90%	100%	100%	90%	100%	
COC(=O)[C@@H](C)Oc1nn(-c2cc(F)ccc2F)c(-c2cncc(F)c2)c1C#N [VII-147]	100%	100%	100%	100%	100%	100%	100%	100%	100%	100%	100%	100%	100%	100%	90%	100%	
COC(=O)COc1nn(-c2ccccc2F)c(-c2ccc(F)nc2)c1F [VII-040]	100%	100%	100%	100%	100%	100%	100%	100%	100%	100%	90%	90%	100%	100%	100%	100%	
